# Source: patent US11291705B2, “Use of caspase-3 inhibitors and caspase-3 activators in the manufacture of medicament for treating cancer and wound healing” (Technion Research & Development Foundation Limited, priority 2016, dated 2022)
# Entries after “also recorded” stand apart in the source; their conditions may differ.
# How the values were obtained:
# [1] = tested on: human melanoma cells; assay: GFP-infected human melanoma cells injected into recipient mice; conditions: mouse
# Protocol: FIG. 15A—Melanoma cell were injected into recipient mice. […] Representative image 6 days after first treatment. FIG. 15B—quantification of tumor development indicates inhibition of tumor size in response to caspase-3 inhibition. FIG. 15C—Extracted tumors were analyzed for proliferation using the Ki67 marker and the presence of GFP^+ melanoma cells. FIG. 15D—Tumors treated with the caspase-3 activator ABT-199 result in a dramatic increase in tumor mass. […] Scale bars, 20 μm.
# Examination of the effect of caspase-3 inhibition on melanoma formation in vivo—For this aim human melanoma cells were stably infected with GFP. Cells were then injected into to recipient mice and the effect of administrating caspase-3 inhibitors was monitored.
# [2] = tested on: YAP; assay: YAP nuclear translocation and pYAP levels in EGFPhigh SGPZ cells; format: cell-based, mice; conditions: immunoblot
# Protocol: Cell culture—The HaCaT and HEK293 cell lines were cultured in DMEM medium supplemented with 10% FBS, 1% P/S (Pen/Strep) and 1% L-glutamine. Integrin α6^+CD34^+ HFSCs and integrin α6^+CD34^−EGFP^high SGPZ cells were isolated and cultured in HFSC media on sustaining J2 feeder cells. Serum was chelated for a calcium concentration of 50 μM. […] Cells were fixed in 4% PFA for 10 minutes for immunofluorescence analysis or harvested for protein or RNA extraction.
# Given that Caspase-3 inhibition hindered cell number and proliferation in vitro the present inventors next examined whether this was mediated via YAP in EGFP^high SGPZ cells using K15^+ SGPZ cells. […] Similar findings as to effect of caspase-3 inhibition on YAP activation and proliferation were also obtained in HaCaT and Hek293E3 cells (FIGS. 3J-K, FIGS. 11B-F).
# [3] = tested on: sebaceous gland (SG); assay: Sebaceous gland (SG) size and cell proliferation in mice injected subcutaneously with caspase-3 inhibitors or activators; format: in vivo; conditions: for SG size: eight week old mice; for SG size / cell proliferation / proliferative rates in the SG: subcutaneous injection for 7 days; for cell proliferation / proliferative rates in the SG / caspase-3 activation in the SG: mice; for caspase-3 activation in the SG: subcutaneous injection for seven days
# Protocol: Immunofluorescence—Skins were embedded in OCT, frozen, sectioned, and fixed in 4% paraformaldehyde. Tail samples were treated with 5 mM EDTA for 4 hours at 37° C. to separate skin epithelium from dermis and fixed in formal saline for 2 hours at room temperature. Dorsal samples were treated with 5 mM EDTA for 6 hours at 37° C. to separate skin epithelium from dermis and fixed in formal saline for 1 hour at room temperature. Samples were blocked for 2 hours in Blocking buffer consisting of 10% Goat serum, 2% BSA, 0.2% Triton-X. Primary antibodies were diluted in blocking buffer and tissue/sections were incubated overnight at 4° C. Whole mounts or sections were washed at least 3 times with PBS. Secondary antibodies were incubated for 1 hour at room temperature followed by 4 washes with PBS. The following primary antibodies were used: YAP (Rabbit, 1:100, Cell Signalling, Mouse 1:100 Santa Cruz), pYAP (Rabbit, 1:100 Cell Signalling), α-E-Catenin (Rabbit, 1:100, Cell Signalling), Ki67 (Rabbit, 1:100, Abcam; Rat, 1:100, eBioscience), CD34 (Rat, 1:100, eBioscience), K15 (Mouse, 1:100, Thermo, Chicken, 1:1000, Abcam), Sox9 (Rabbit, 1:100, Millipore, Goat, 1:50, Santa Cruz). Cleaved-Caspase-3 (Rabbit, 1:100, Cell signalling), Phalloidin (1:250, Life Technologies). TUNEL was performed using ApopTag TdT (Millipore). […] Analysis was performed on Zeiss LSM 880 confocal microscope.
# [4] = tested on: murine melanoma cell line B16F10; assay: B16F10 melanoma tumors in mice
# Source text: FIG. 21E—Resected tumors stained for the proliferative marker Ki67 (red). […] Denotation: CP3, Caspase-3. ** (P<0.01), *** (P<0.001).
# FIG. 22C—A histogram displaying quantification of tumor weight (mg) in treated (with Ivachtin) and non-treated (DMSO) animals. […] FIG. 22E—A histogram depicting quantification of Ki67^+ melanoma cells in vivo after treatment with Ivachtin. […] FIG. 22G—A histogram depicting quantification of TUNEL^+ melanoma cells. Denotation: CP3, Caspase-3. Scale bars: 10 μm (FIGS. 22D and 22F). * (P<0.05).
# [5] = tested on: XIAP; assay: XIAP protein and mRNA levels in EGFPhigh SGPZ cells; format: cell-based, mice
# Protocol: RNA extraction, reverse transcription and real-time PCR (RT-PCR)—RNA was isolated using Trizol (Sigma) and up to 2 μg of RNA were subjected to cDNA synthesis (Applied Biosystems). Real time PCR was carried out using the PerfeCTa SYBR Green FastMix (Quanta), with gene-specific primers [RpLp0 […] (SEQ ID NO:50) and […] (SEQ ID NO:51); WTIP […] (SEQ ID NO:52) and […] (SEQ ID NO:53); ErbB4 […] (SEQ ID NO:54) and […] (SEQ ID NO:55); HOXC13 […] (SEQ ID NO:56) and […] (SEQ ID NO:57); HOXA5 […] (SEQ ID NO:58) and […] (SEQ ID NO:59)]. Amplicon levels were analysed in triplicate and quantitated relative to a standard curve comprising cDNA, and values normalized to levels of the housekeeping gene (Rplp0 or Gapdh). Reactions were: 3 minutes at 95° C., then 40 cycles of 10 seconds at 95° C. and 30 seconds at 60° C. with addition of melt curve step: 10 seconds at 95° C., and increments of 0.5° C. every 5 seconds between 65° C. to 95° C.
# In Drosophila, Yorkie (Yki) the homolog of YAP directly regulates the transcription of Death-associated inhibitor of apoptosis 1 (Diap1), which is the functional equivalent of XIAP [Fuchs, Y. & Steller, H. Programmed cell death in animal development and disease. Cell 147, 742-758 (2011); Zhang, L., et al. The TEAD/TEF family of transcription factor Scalloped mediates Hippo signaling in organ size control. Developmental cell 14, 377-387 (2008)]. […]
# [6] = tested on: XIAP; assay: XIAP expression in treated mice; format: in vivo; conditions: for XIAP levels: treated mice
# Source text: In Drosophila, Yorkie (Yki) the homolog of YAP directly regulates the transcription of Death-associated inhibitor of apoptosis 1 (Diap1), which is the functional equivalent of XIAP [Fuchs, Y. & Steller, H. Programmed cell death in animal development and disease. Cell 147, 742-758 (2011); Zhang, L., et al. The TEAD/TEF family of transcription factor Scalloped mediates Hippo signaling in organ size control. Developmental cell 14, 377-387 (2008)]. Therefore, and without being bound by any theory, the present inventors hypothesized that in the SG, XIAP might be transcriptionally regulated by YAP to balance caspase-3 activity. […] Moreover, XIAP protein levels were increased upon caspase-3 activation with PAC-1, but this effect was abolished when YAP was inhibited (FIG. 29D).
# [7] = tested on: de novo regenerated SGs; assay: De novo SG regeneration from the wound bed after full thickness excision wounds; format: in vivo, mice; conditions: for size and maturation of regenerated SGs: regenerating skin after wounding
# Protocol: The wound healing process can stimulate de novo regeneration of HFs and SGs (reference 35). As such, the present inventors utilized this model to examine whether caspase-3 activation can drive SG development and maturation. Eight-week old mice were injected with DMSO, PAC-1 or PAC-1 along with Verteporfin for two days prior to wound infliction. Full thickness excision wounds (1 cm^2) were generated on the dorsalskins and skin samples were harvested 20 and 30 days post wound infliction. […] Importantly, YAP inhibition reversed these regenerative phenotypes, leading to a 10-fold reduction in the number of de novo formed SGs (FIGS. 17D and E).
# [8] = tested on: excision wounds (1 cm^2) on dorsal skin; assay: Wound repair of full thickness excision wounds on dorsal skin; format: in vivo, mice
# Source text: For all wound repair experiments, mice were sedated with isofluorane. Mice were shaved with electric clippers and treated topically with a hair removal cream for a few minutes (Nair). Full-thickness excision wounds (1 cm^2) were generated on the dorsal skins and monitored for wound coverage. PWI, mice were individually housed. At the desired time PWI, mice were euthanized with CO2 and the wounded skins were harvested and either embedded in OCT or prepared for whole mounts as described above or for protein extraction.
# Inhibition of caspase-3 impairs wound repair—Since YAP is known to play a chief role in regeneration (34), the present inventors investigated whether in vivo inhibition of Caspase-3 affects the wound repair dynamic by modulating YAP activity. […] Full thickness excision wounds (1.0 cm^2) were generated on the dorsalbacks and monitored for wound coverage. In control mice, three days post wound infliction (PWI) the wound size was reduced by 60% while in Ivachtin and z-DEVD-fink (SEQ ID NO: 71) treated mice, it was reduced by only 10% and 20%, respectively (FIG. 5A and FIG. 5B).
# [9] = tested on: YAP; assay: Nuclear YAP and Ki67 in SGs of mice treated with PAC-1 and/or Verteporfin; format: in vivo
# Source text: Therefore, the present inventors investigated whether SG homeostasis is governed by YAP activity in a caspase-3 dependent manner. For this aim the present inventors employed the YAP chemical inhibitor, Verteporfin, which is known to inhibit the interaction between YAP and TEAD in the nucleus and block transcriptional activity (reference 42). The present inventor administered Verteporfin either alone or in combination with the caspase-3 activator PAC-1.
# [10] = tested on: α-Catenin; assay: α-Catenin levels in vivo after caspase-3 inhibition or activation; parameters: species or system mice; conditions: Western blot and immunofluorescence
# Protocol: TUNEL was performed using ApopTag TdT (Millipore). […] Analysis was performed on Zeiss LSM 880 confocal microscope.
# The levels of α-Catenin are known to be a critical factor in the regulation of YAP (27). In low confluent cells, diminished levels of α-Catenin serve as a mechanotransduction mechanism that instructs the nuclear translocation of YAP and drives proliferation (27, 33). […] The present inventors therefore examined the levels of α-Catenin both in vitro and in vivo, by employing both Western blot analysis and immunofluorescence.
# [11] = tested on: α-Catenin; assay: Immunoblot of α-Catenin in EGFPhigh SGPZ cells; format: cell-based, mice; conditions: extracts from EGFPhigh SGPZ cells
# [12] = tested on: integrin α6+CD34+ HFSCs, HaCaT keratinocytes and Hek293E3 cells; assay: Expansion of other cell types treated with caspase-3 inhibitors; format: cell-based
# Source text: In order to examine whether Caspase-3 affects the expansion of other cell types the present inventors isolated integrin α6^+CD34^+ HFSCs from second telogen mice.
# [13] = tested on: integrin α6+CD34−EGFPhigh SGPZ cells; assay: Proliferation and expansion of isolated SGPZ cells treated with caspase-3 inhibitors; format: cell-based, mice
# Protocol: Flow Cytometry—SGPZ cell isolation and FACS analysis were performed with K15-EGFP mice and CD34, integrin α6 and Sca1 antibodies. K15-GFP^high cells were isolated from ears and dorsal skin of 8-week old B6.Cg-Tg(Krt1-15-EGFP)2Cot/J mice.
# [14] = tested on: B16F10 melanoma cells; assay: B16F10 melanoma cells in vitro: growth, Ki67, pYAP, α-Catenin; format: cell-based
# Source text: FIG. 23D—A histogram depicting quantifications of 501-A total cells number after treatment with Z-DEVD-fink (SEQ ID NO: 71). FIG. 23E—Images depicting B16F10 melanoma cells stained for Ki67 (red), active cleaved Caspase-3 (green) and nuclear counterstain DAPI (blue). […] Insets are zoom in on specific cells, Denotation: CP3, Caspase-3. Scale bars: 100 μm. ** (P<0.01), *** (P<0.001).
# FIG. 24A—Images depicting B16F10 melanoma cells stained for pYAP (red). […] FIG. 24D—Images depicting B16F10 melanoma cells stained for α-Catenin (green). […] FIG. 24E—Immunoblot analysis of proteins isolated from B16F10 melanoma cells using antibodies against pYAP, α-Catenin and α-Tubulin as control.
compound,measurement,setting,value
CC1(C)CCC(CN2CCN(c3ccc(C(=O)NS(=O)(=O)c4ccc(NCC5CCOCC5)c([N+](=O)[O-])c4)c(Oc4cnc5[nH]ccc5c4)c3)CC2)=C(c2ccc(Cl)cc2)C1 [ABT-199],tumor expansion by in vivo imaging,[1],dramatically expanded
same,tumor mass,[1]; in vivo,two-fold increased
same,levels of pYAP,[2],significantly decreased
same,SG size,[3],significant increase
same,cell proliferation / proliferative rates in the SG,[3],significant increase
same,caspase-3 activation in the SG,[3],significant increase
same,tumor volume and weight,[4]; established B16F10 tumors,increased in volume and weight
same,proliferation (Ki67) in resected tumors,"[4]; mouse, in vivo",higher proliferation; also recorded: high levels of proliferation
same,tumor size,"[4]; mouse, in vivo",dramatic increase in size
same,activated cleaved Caspase-3 in resected tumors,[4]; staining,higher expression
Verteporfin,"XIAP mRNA levels, lower compared to control cells",[5]; RNA from EGFPhigh SGPZ cells,2 fold
same,PAC-1 induced increase of XIAP protein levels when YAP was inhibited,[6]; PAC-1 with Verteporfin,abolished
same,XIAP levels,[6],decrease in XIAP levels
same,size and maturation of regenerated SGs,[7],did not develop into mature SGs
same,increased repair by PAC1 under YAP inhibition,[8]; PAC1 with VP,could be revered
same,proliferative effect of PAC-1 (Ki67+ cells in SGs),[9]; Verteporfin in combination with PAC-1,able to overcome the positive proliferative effect of PAC-1
same,nuclear translocation of YAP,[9]; Verteporfin treatment,did not affect
C=CCc1cccc(/C=N/NC(=O)CN2CCN(Cc3ccccc3)CC2)c1O [PAC-1],levels of α-Catenin,[10],decreased levels
same,levels of full length α-Catenin,[11],decreased levels
same,~90 kDa and ~85 kDa α-Catenin bands (cleaved),[11],much higher levels
same,levels of pYAP,[2],significantly decreased
same,SG size,[3],significant increase
same,cell proliferation / proliferative rates in the SG,[3],significant increase
same,caspase-3 activation in the SG,[3],significant increase
same,XIAP levels,[5]; EGFPhigh SGPZ cells,increase in XIAP levels
same,XIAP levels,[6],increased
same,number of regenerated de novo SGs,[7]; 20 and 30 days post wound infliction,striking increase
same,size and maturation of regenerated SGs,[7],significantly larger and more developed SGs
same,number of nuclear YAP and Ki67 cells,[8]; 7 days PWI,increased number
same,wound healing compared with control,[8]; PAC-1 injected daily subcutaneously,healed significantly faster than control
same,numbers of nuclear YAP+/Ki67+ cells in SGs,[9]; PAC-1 alone,higher numbers
CC(=O)OCCN1C(=O)c2c(C)nc3ccc(S(=O)(=O)N4CCOCC4)cc3c2C1=O [Ivachtin],expansion of cells,[12]; daily treatment,impaired the expansion
same,effect on expansion of cells,[12]; not supplemented daily,very limited effect
same,number of cells positive for proliferative markers Ki67 and PCNA,"[13]; immunostaining, Ivachtin daily, five days",three-fold decrease
same,effect on cell number and colony formation,[13]; not supplemented daily,very limited effect
same,cellular expansion (proliferation and cell number),[13]; supplemented daily,significant impairment
same,"size of the SG, length, width and number of proliferating cells",[3]; 20 and 30 days post injection,returned to normal
same,SG size,[3],decrease in SG size
same,cell proliferation / proliferative rates in the SG,[3],impaired proliferative rates; also recorded: significant decrease
same,tumor weight,[4]; established B16F10 tumors,decrease in tumor weight
same,YAP positive cells in resected tumors,"[4]; mouse, in vivo",significant decreases
same,cell death by TUNEL assay in resected tumors,"[4]; mouse, in vivo",enhanced cell death
same,proliferation (Ki67) in resected tumors,"[4]; mouse, in vivo",reduced expression; also recorded: attenuated proliferation
same,tumor size,"[4]; mouse, in vivo",smaller tumors
same,phosphorylated YAP-positive cells (pYAP+),[14]; compared to DMSO,significant increases
same,growth of B16F10 melanoma cells,[14]; continuous presence of inhibitor,hindered
same,levels of α-Catenin in wounded skin / invading keratinocytes,[8]; 5-7 days PWI,increased α-Catenin levels
same,cleavage of α-Catenin in wounded dorsalskin,"[8]; 7 days PWI, Western blot",impairment in cleavage
same,number of nuclear YAP and Ki67 cells,[8]; 12 days PWI,decreased number
same,wound closure,[8]; FIGS. 19A-F,significant decrease
same,effect of combining caspase-3 and YAP inhibition on wound healing,"[8]; Ivachtin, Verteporfin or both",no additive effect
same,healing at all time points,[8]; daily subcutaneous injection,less efficient
same,wound size reduced by,"[8]; three days post wound infliction, injected from 2 days prior to wounding",10%
